Tested on: 324938-238-R-J1-PDC complex spheroids viability
Experiment: Anticancer human tumor 324938-238-R-J1-PDC patient-derived bladder carcinoma cell line growth inhibition [CLK]
Conditions: for IC50: curve of first compound; for viability, T/C: stronger effect = lower value
Outline: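 Patient-derived tumor cells grown as complex spheroids with HUVEC endothelial cells and mesenchymal stem cells, treated with drug combinations. Concentrations descend in half-log steps from near clinical Cmax, or from 10 microM if Cmax unknown.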

[1] = second compound 0.0316 µM, first compound 0.0316 µM
[2] = second compound 0.0316 µM, first compound 0.1 µM
[3] = second compound 0.0316 µM, first compound 0.316 µM
[4] = second compound 0.0316 µM, first compound 1 µM
[5] = second compound 0.0316 µM, first compound 3.16 µM
[6] = second compound 0.0316 µM, first compound 10 µM
[7] = second compound 0.1 µM, first compound 0.0316 µM
[8] = second compound 0.1 µM, first compound 0.1 µM
[9] = second compound 0.1 µM, first compound 0.316 µM
[10] = second compound 0.1 µM, first compound 1 µM
[11] = second compound 0.1 µM, first compound 3.16 µM
[12] = second compound 0.1 µM, first compound 10 µM
[13] = second compound 0.316 µM, first compound 0.0316 µM
[14] = second compound 0.316 µM, first compound 0.1 µM
[15] = second compound 0.316 µM, first compound 0.316 µM
[16] = second compound 0.316 µM, first compound 1 µM
[17] = second compound 0.316 µM, first compound 3.16 µM
[18] = second compound 0.316 µM, first compound 10 µM
[19] = second compound 1 µM, first compound 0.0316 µM
[20] = second compound 1 µM, first compound 0.1 µM
[21] = second compound 1 µM, first compound 0.316 µM
[22] = second compound 1 µM, first compound 1 µM
[23] = second compound 1 µM, first compound 3.16 µM
[24] = second compound 1 µM, first compound 10 µM
[25] = second compound 3.16 µM, first compound 0.0316 µM
[26] = second compound 3.16 µM, first compound 0.1 µM
[27] = second compound 3.16 µM, first compound 0.316 µM
[28] = second compound 3.16 µM, first compound 1 µM
[29] = second compound 3.16 µM, first compound 3.16 µM
[30] = second compound 3.16 µM, first compound 10 µM
[31] = second compound 10 µM, first compound 0.0316 µM
[32] = second compound 10 µM, first compound 0.1 µM
[33] = second compound 10 µM, first compound 0.316 µM
[34] = second compound 10 µM, first compound 1 µM
[35] = second compound 10 µM, first compound 3.16 µM
[36] = second compound 10 µM, first compound 10 µM
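Note: viability read after seven days of drug exposure.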
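Throughout, for viability, T/C: 100% = DMSO vehicle control wells.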

Nc1ccn(C2OC(CO)C(O)C2(F)F)c(=O)n1 (centres undefined) + CNC(=O)c1ccc(Nc2nc(OC3CCCC3)c3c(-c4ccc5nc(C)oc5c4)c[nH]c3n2)c(OC)c1
IC50 (second compound 0.0316 µM): < 0.0316 µM
IC50 (second compound 0.1 µM): < 0.0316 µM
IC50 (second compound 0.316 µM): < 0.0316 µM
IC50 (second compound 1 µM): < 0.0316 µM
IC50 (second compound 3.16 µM): < 0.0316 µM
IC50 (second compound 10 µM): < 0.0316 µM
viability, T/C [1]: 38.6%
viability, T/C [2]: 16.4%
viability, T/C [3]: 15.2%
viability, T/C [4]: 14%
viability, T/C [5]: 10.6%
viability, T/C [6]: 8.72%
viability, T/C [7]: 23%
viability, T/C [8]: 18.8%
viability, T/C [9]: 12.8%
viability, T/C [10]: 14.2%
viability, T/C [11]: 10.3%
viability, T/C [12]: 7.12%
viability, T/C [13]: 17.1%
viability, T/C [14]: 14.8%
viability, T/C [15]: 12.3%
viability, T/C [16]: 12.5%
viability, T/C [17]: 8.68%
viability, T/C [18]: 7.82%
viability, T/C [19]: 15%
viability, T/C [20]: 15.4%
viability, T/C [21]: 12.2%
viability, T/C [22]: 11.6%
viability, T/C [23]: 9.63%
viability, T/C [24]: 8.24%
viability, T/C [25]: 17.1%
viability, T/C [26]: 13.7%
viability, T/C [27]: 13%
viability, T/C [28]: 12%
viability, T/C [29]: 8.99%
viability, T/C [30]: 9.03%
viability, T/C [31]: 18%
viability, T/C [32]: 12.9%
viability, T/C [33]: 14.3%
viability, T/C [34]: 12.1%
viability, T/C [35]: 13.4%
viability, T/C [36]: 8.05%

O=c1[nH]cc(F)c(=O)[nH]1 + CNC(=O)c1ccc(Nc2nc(OC3CCCC3)c3c(-c4ccc5nc(C)oc5c4)c[nH]c3n2)c(OC)c1
IC50 (second compound 0.0316 µM): 0.256 µM
IC50 (second compound 0.1 µM): < 0.0316 µM
IC50 (second compound 0.316 µM): < 0.0316 µM
IC50 (second compound 1 µM): < 0.0316 µM
IC50 (second compound 3.16 µM): < 0.0316 µM
IC50 (second compound 10 µM): < 0.0316 µM
viability, T/C [1]: 80.6%
viability, T/C [2]: 77.5%
viability, T/C [3]: 43.5%
viability, T/C [4]: 28.6%
viability, T/C [5]: 22.2%
viability, T/C [6]: 25.1%
viability, T/C [7]: 25.2%
viability, T/C [8]: 24%
viability, T/C [9]: 23.8%
viability, T/C [10]: 19.8%
viability, T/C [11]: 15.7%
viability, T/C [12]: 17.5%
viability, T/C [13]: 19.6%
viability, T/C [14]: 18.5%
viability, T/C [15]: 16.2%
viability, T/C [16]: 14.7%
viability, T/C [17]: 14.3%
viability, T/C [18]: 14.7%
viability, T/C [19]: 16.1%
viability, T/C [20]: 15.2%
viability, T/C [21]: 15.4%
viability, T/C [22]: 13.8%
viability, T/C [23]: 10.5%
viability, T/C [24]: 9.31%
viability, T/C [25]: 15.3%
viability, T/C [26]: 14.8%
viability, T/C [27]: 14%
viability, T/C [28]: 12.7%
viability, T/C [29]: 11.2%
viability, T/C [30]: 11.1%
viability, T/C [31]: 17.8%
viability, T/C [32]: 15.3%
viability, T/C [33]: 15.1%
viability, T/C [34]: 16.6%
viability, T/C [35]: 12.6%
viability, T/C [36]: 10.3%

Source: PubChem BioAssay AID2060621 (Molecular Pharmacology Branch, DTP, NCI, 2025)
